From patent publication US10517849B2, “LSD1 inhibitors and medical uses thereof” (Constellation Pharmaceuticals, Inc., priority 2016, dated 2019)
Counter-ions that a name gives are not always drawn.

Experiments:
LSD1 = LSD1 (Homo sapiens (Human), UniProt O60341); experiment: LSD1 TR-FRET Assay; assay type: biochemical; settings: biotinylated H3K4me1 peptide 4 μM, 10 nM LSD1, 40 nM FAD, 50 minutes at room temperature
Description: LSD1 demethylase reactions were carried out in 50 mM HEPES pH 7.4, 100 mM NaCl, 1 mM DTT, 0.01% Tween-20, and 0.1 mg/mL BSA. All enzymatic reactions were performed for 50 minutes at room temperature in a 10-μL volume. Five microliters of 8 μM biotinylated H3K4me1 peptide solution was added to each well of a black 384 well, clear-bottom assay plate containing 80 nL compound (final concentration of 0.8% DMSO and 4 μM substrate). Reactions were initiated by the addition of a mixture containing 20 nM LSD1 and 80 nM FAD (5 μL). LSD1 and FAD final concentrations were 10 and 40 nM, respectively. Enzyme activity was stopped by the addition of 90 μL of high salt buffer consisting of 50 mM HEPES pH 7.4, 500 mM NaCl, 1 mM DTT, 0.01% Tween-20, and 0.1 mg/mL BSA. Ten microliters of the quenched reaction mixtures were transferred to a black 384 well ProxiPlate. Ten microliters of detection mixture was added to the ProxiPlate, Europium-labeled antibody and Streptavidin APC were used at final concentrations of 0.3 nM and 200 nM, respectively (total assay volume of 20 μL). Capture of the product peptide by the anti-H3K4me0 antibody and Streptavidin APC was allowed to proceed for 60 min at room temperature before measuring the TR-FRET signal. Plates were read on a Perkin Elmer EnVision. Percent inhibition was calculated using Max (no inhibitor) and Min (quenched with stop buffer) controls and inhibition curves plotted to determine IC50 values.

[1] = system: LY-96 mRNA induction in MV4-11 cells; experiment: LSD1 LY96 Quantigene Assay; assay type: cell-based; settings: Homo sapiens, 16 h, Quantigene 2.0
Description: MV4-11 cells were cultured at a density of 4×10^4 cells per well in a 96-well plates and treated with various doses inhibitor starting from 10 μM up to 0.0005 μM for 16 h. The LY-96 mRNA induction was quantified using the Quantigene 2.0 system (Affymetrix). The cells were lysed with Lysis Mixture containing Proteinase K. The working reagent for capturing the RNA was prepared according to the steps detailed in “Capturing Target RNA from Cultured Cell or Blood Lysates” in the Quantigene handbook. The subsequent hybridization with LY-96 probe, signal amplification and detection steps were performed as described in the manual. The chemiluminescence was read using Envision (PerkinElmer) and Abase (IDBS software) was used to plot the dose response curves and calculate IC50.

Kasumi-1 = Kasumi-1 GI50 Assay; assay type: cell-based; settings: Homo sapiens, 288 h; Kasumi-1 cells, 12 days, Cell Titer-Glo viability
Description: Cells were plated at 5,000 cells per well in 96 well tissue culture dishes containing tool compounds arrayed in a 10-point dose curve, ranging from […] with 4-fold dilutions, and split every fourth day at a fixed ratio to re-establish 5,000 cells/well density for DMSO-treated controls. Cell treatments were carried out for a total of 12 days. At each 4-day split, the viable cell numbers were determined using the Cell Titer-Glo luminescent cell viability assay (Promega, Madison, Wis. USA) using an EnVision® Multilabel Plate Reader (Perkin Elmer, Waltham, Mass. USA). GraphPad Prism 6 (GraphPad Software, Inc., La Jolla, Calif. USA) was used for curve fitting and determination of GI50 values.

CC/C(=C\c1ccccc1)[C@@H]1C[C@H]1NC1CC2(CCN(CCO)CC2)C1 [Compound 11, 2-(2-(((1R,2S)-2-((E)-1-phenylbut-1-en-2-yl)cyclopropyl)amino)-7-azaspiro[3.5]nonan-7-yl)ethanol dihydrochloride]
< 100 nM: IC50 (LSD1) | EC50 [1] | GI50 (Kasumi-1)

CC/C(=C\c1ccccc1)[C@@H]1C[C@H]1NC1CC2(C1)CN(CC(=O)NCCO)C2 [Compound 13, N-(2-hydroxyethyl)-2-(6-(((1R,2S)-2-((E)-1-phenylbut-1-en-2-yl)cyclopropyl)amino)-2-azaspiro[3.3]heptan-2-yl)acetamide bis(2,2,2-trifluoroacetate)]
< 100 nM: IC50 (LSD1) | EC50 [1] | GI50 (Kasumi-1)

CC/C(=C\c1ccccc1)[C@@H]1C[C@H]1NC1CC2(CCN(CCOC)CC2)C1 [Compound 17, 7-(2-methoxyethyl)-N-((1R,2S)-2-((E)-1-phenylbut-1-en-2-yl)cyclopropyl)-7-azaspiro[3.5]nonan-2-amine dihydrochloride]
< 100 nM: IC50 (LSD1) | EC50 [1] | GI50 (Kasumi-1)

CC/C(=C\c1ccccc1)[C@@H]1C[C@H]1NC1CC2(C1)CN(CCC(N)=O)C2 [Compound 22, 3-(6-(((1R,2S)-2-((E)-1-phenylbut-1-en-2-yl)cyclopropyl)amino)-2-azaspiro[3.3]heptan-2-yl)propanamide bis(2,2,2-trifluoroacetate)]
< 100 nM: IC50 (LSD1) | EC50 [1] | GI50 (Kasumi-1)

CC/C(=C\c1ccccc1)[C@@H]1C[C@H]1NC1CC2(CCN(CCS(N)(=O)=O)CC2)C1 [Compound 23, 2-(2-(((1R,2S)-2-((E)-1-phenylbut-1-en-2-yl)cyclopropyl)amino)-7-azaspiro[3.5]nonan-7-yl)ethanesulfonamide dihydrochloride]
< 100 nM: IC50 (LSD1) | EC50 [1] | GI50 (Kasumi-1)

CC/C(=C\c1ccccc1)[C@@H]1C[C@H]1NC1CC2(C1)CN(CCS(N)(=O)=O)C2 [Compound 32]
< 100 nM: IC50 (LSD1) | EC50 [1] | GI50 (Kasumi-1)
